According to patent US5656591A, “Antimicrobial agents and method for treating products therewith” (Morinaga Milk Industry Co., Ltd., priority 1992, dated 1997):

Legend:
Escherichia coli 0-111 = test: Test for antimicrobial activity (turbidity): growth inhibiting concentration of antibiotics; type: cell-based
Procedure: (§1) Precultures of test microorganisms to be used in the tests described hereunder were prepared in such a manner that: from the frozen preservation of dispersions of test microorganisms, a loop of the respective strains of the microorganisms were taken out and spread onto TRI PETIT CASE SOYA AGAR MEDIA (by BBL Company), and incubated at 37° C. for 16 hours; the colonies grown on the culture media were scraped by a platinum loop and cultivated in 2.1% Mueller-Hington Broth (by Difco Company) respectively for several hours at 37° C. The resultant microbial cultures at logarithmic phase in 3×10^8 /ml of microbial concentration were used as the precultures.
(§2) The test media to be used in the respective tests were prepared in such a manner that: aqueous solutions in a predetermined concentration of the lactoferrin hydrolysates or the lactoferrin-derived antimicrobial peptides of (1) and (2) in Preparation of Samples (supra), as well as the samples of antibiotics of (3) (supra) were respectively sterilized with filters (by Advantec Company); then a quantity of the resultant solutions of respective samples were selectively added to a quantity of basal medium (Mueller-Hington Broth) prepared in the eventual concentration of 2.1%, thereby combinations of the samples and their concentrations in the respective test media were adjusted as specified in the respective tests.
(§3) Antimicrobial activity was examined as follows: A quantity of the respective precultures prepared in (1) immediately above was diluted with 2.1% Mueller-Hington Broth to result in 2×10^6 /ml of microbial concentration; 100 μl aliquots of the resultant liquid were added to 100 μl aliquots of one of the test media as specified in the respective test; the resultant media were incubated at 37° C. for 16 hours; then the turbidity of the resultant culture broths were measured thereby antimicrobial activity was examined.
(§4) Components in the test and control media and eventual concentrations thereof were adjusted by properly combining 0 mg, 0.4 mg, 1.6 mg and 6.4 mg/ml of lactoferrin hydrolysate of (1) (in Preparation of Samples, supra). or 0 μg, 16 μg, 64 μg, and 256 μg/ml of lactoferrin-derived antimicrobial peptides of (2) (in Preparation of Samples, supra), and 0 μg, 0.01 μg, 0.1 μg, 1 μg, and 10 μg/ml of antibiotics of (3) (supra), then antimicrobial activity of the combined use of the components against Escherichia coli 0-111 and Staphylococcus aureus (JCM2151) as well as growth inhibiting concentrations of the antibiotics were investigated.

[1] = tested on: Staphylococcus aureus JCM2151; test: as above; type: cell-based; details: for MIC: Staphylococcus aureus
Procedure: as §1, §2, §3, §4

[2] = tested on: Staphylocoecus aureus (JCM-2151); test: Viability assay in Mueller-Hington Broth; type: cell-based, Staphylococcus aureus
Procedure: as §1
as §2, with “tests. […]” for “tests.”

[3] = Escherichia coli, 0111, antimicrobial peptide (Seq. ID No. 27) 0 μg/ml
[4] = Escherichia coli, 0111, antimicrobial peptide (Seq. ID No. 27) 16 μg/ml
[5] = Escherichia coli, 0111, antimicrobial peptide (Seq. ID No. 27) 64 μg/ml
[6] = Escherichia coli, 0111, antimicrobial peptide (Seq. ID No. 27) 256 μg/ml
[7] = lactoferrin hydrolysate 0 mg/ml
[8] = lactoferrin hydrolysate 0.4 mg/ml
[9] = lactoferrin hydrolysate 1.6 mg/ml
[10] = lactoferrin hydrolysate 6.4 mg/ml
[11] = JCM2151, antimicrobial peptide (Seq. ID No. 27) 0 μg/ml
[12] = JCM2151, antimicrobial peptide (Seq. ID No. 27) 16 μg/ml
[13] = JCM2151, antimicrobial peptide (Seq. ID No. 27) 64 μg/ml
[14] = JCM2151, antimicrobial peptide (Seq. ID No. 27) 256 μg/ml

| Structure (SMILES) | MIC (Escherichia coli 0-111; [3]) [µg/mL] | MIC (Escherichia coli 0-111; [4]) [µg/mL] | MIC (Escherichia coli 0-111; [5]) [µg/mL] | MIC (Escherichia coli 0-111; [6]) [µg/mL] | Growth inhibiting Concentration of antibiotics (Escherichia coli 0-111; [7]) [µg/mL] | Growth inhibiting Concentration of antibiotics (Escherichia coli 0-111; [8]) [µg/mL] | Growth inhibiting Concentration of antibiotics (Escherichia coli 0-111; [9]) [µg/mL] | Growth inhibiting Concentration of antibiotics (Escherichia coli 0-111; [10]) [µg/mL] | MIC [1, 11] [µg/mL] | MIC [1, 12] [µg/mL] | MIC [1, 13] [µg/mL] | MIC [1, 14] [µg/mL] | Growth inhibiting Concentration of antibiotics [1, 7] [µg/mL] | Growth inhibiting Concentration of antibiotics [1, 8] [µg/mL] | Growth inhibiting Concentration of antibiotics [1, 9] [µg/mL] | Growth inhibiting Concentration of antibiotics [1, 10] [µg/mL] | survival rate ([2]; Test 25: penicillin 1 μg/ml alone (control row)) [%] | survival rate ([2]; Test 25: streptomycin 1 μg/ml alone (control row)) [%] |
| --- | --- | --- | --- | --- | --- | --- | --- | --- | --- | --- | --- | --- | --- | --- | --- | --- | --- | --- |
| CC1(C)S[C@@H]2[C@H](NC(=O)Cc3ccccc3)C(=O)N2[C@H]1C(=O)O [penicillin] | > 1 | > 1 | 1 | 0.1 | > 1 | 1 | 1 | 0.1 | > 1 | 1 | 1 | 0.1 | > 1 | 1 | 1 | 0.1 | 14.2 |  |
| [H]/N=C(/N)N[C@H]1[C@H](O)[C@@H](O)[C@H](O[C@@H]2O[C@@H](C)[C@](O)(C=O)[C@H]2O[C@@H]2O[C@@H](CO)[C@H](O)[C@@H](O)[C@@H]2NC)[C@@H](N/C(N)=N\[H])[C@@H]1O [streptomycin] | > 1 | > 1 | 1 | 0.01 | > 1 | > 1 | 1 | 0.01 | > 1 | > 1 | 1 | 0.01 | > 1 | > 1 | 1 | 0.1 |  | 12.4 |
